Source: EP0315434A2, “Pyridoxal hydrazone derivatives their production and use and pharmaceutical compositions containing the same” (YISSUM RESEARCH DEVELOPMENT COMPANY OF THE HEBREW …, priority 1987, dated 1989)

Assays:
[1] = molecular target: T1, Ribonucleoside Diphosphate Reductase (RdR) (Homo sapiens, UniProt P31350); assay: Inhibition of ribonucleotide diphosphate reductase; assay type: biochemical
T1 sequence (P31350 1-389): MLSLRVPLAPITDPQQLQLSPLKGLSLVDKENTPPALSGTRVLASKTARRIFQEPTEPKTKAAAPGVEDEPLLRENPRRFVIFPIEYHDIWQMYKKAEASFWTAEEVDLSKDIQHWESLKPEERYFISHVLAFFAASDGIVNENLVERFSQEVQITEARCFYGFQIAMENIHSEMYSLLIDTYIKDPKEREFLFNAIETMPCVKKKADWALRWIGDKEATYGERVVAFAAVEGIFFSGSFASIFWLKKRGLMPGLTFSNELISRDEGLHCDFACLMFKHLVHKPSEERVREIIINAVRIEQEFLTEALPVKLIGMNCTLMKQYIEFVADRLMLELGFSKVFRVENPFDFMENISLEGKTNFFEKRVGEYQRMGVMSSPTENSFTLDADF

[2] = Iron chelation in H₂O (spectrophotometric, apparent K), ferrous ions; assay type: physicochemical; conditions: for higher affinity for ferrous than for ferric ions: ferrous versus ferric
[3] = Fate of ⁵⁹Fe tracer incubated with chelator and injected into normal rats (radioiron distribution and excretion); assay type: in vivo; conditions: for Radioiron Distribution in % Feces / Radioiron Distribution in % Total excretion / Radioiron Distribution in % Urine / Radioiron Distribution in % Blood / Radioiron Distribution in % Liver / Radioiron Distribution in % Spleen: 10 mg chelator with ⁵⁹Fe, subcutaneous, normal rats; for Radioiron Distribution in % Feces / Radioiron Distribution in % Total excretion / Radioiron Distribution in % Urine: cumulative within 4 days; for Radioiron Distribution in % Blood / Radioiron Distribution in % Liver / Radioiron Distribution in % Spleen: within 4 days
Procedure: Table 1 describes the fate of ⁵⁹Fe tracer reincubated […] with 10 mg of some of the above iron chelators and then injected subcutaneously to groups of 4 normal rats. Numbers represent mean cumulative radioiron excretion within 4 days of injection. For comparison, spontaneous excretion of radioiron and the excretion of desferrioxamine (DF) bound radioiron are also given. […]
Spleen and kidney were counted as whole organs.
(§1) The excretion of radioiron following ⁵⁹Fe labelling was measured in animals confined to solitary metabolic cages with stainless steel grid bottoms, and stool and urine were collected separately.

Lewis lung carcinoma = assay: Inhibition of Lewis lung carcinoma (primary tumor and metastases); assay type: in vivo; conditions: dose 1.25 mg/kg
Text: It becomes possible also to look at the ability of one of the compounds (Ex. 1) to inhibit the growth of Lewis lung carcinoma. With a view to possible mechanisms we employed the well-established anti-cancer antibiotics (a) bleomycin, and (b) daunorubicin, as reference compounds.

[4] = Mobilization of iron from hepatic parenchymal stores in hypertransfused rats labelled with ⁵⁹Fe-ferritin; assay type: in vivo
Procedure: In each case, 40 mg of each compound was administered per animal in a single subcutaneous injection.
In vivo studies of chelating efficiency were performed in two models: (a) normal rats injected i.p. with 10 mg of either desferrioxamine B (DF), PIH of the prior art, PPH of Example 4 or PPHE from Example 5 labelled in vitro with ⁵⁹Fe; and (b) hypertransfused rats receiving twice 4 ml/100gm packed RBC intravenously 5 and 3 days prior to study (hematocrit 68%) and labelled with ⁵⁹Fe-ferritin injected i.v. 24h prior to iron chelating therapy as described previously. Drugs to be tested in the ⁵⁹Fe-ferritin model were given either by i.p. injection or by gastric tube at a dose of 40 mg per animal. Radioiron excretion and organ distribution were determined after 4 days
The radioactivity of spleen, weighed portions of the liver, and 1 ml samples of blood were determined in an automatic well type scintillation counter (Packard Autogamma Model 5360 Scintillation spectrometer). Spleen and kidney were counted as whole organs.
as §1, with “Whole body counts were performed in a small animal counter (Packard Model 446 Armac) scintillation detector. The” for “The”

[5] = system: chloroquine-resistant strain of P. falciparum (FCR-3); conditions: molar concentration 2 x 10⁻⁵; cultured 3 days
Procedure: Cultures of a chloroquine-resistant strain of P. falciparum (FCR-3), cultivated in human erythrocytes (a technique widely used at the Kuvin Centre, Hebrew University Hadassah Medical School), were suspended in solutions containing chelators and then cultured for 3 days. Growth of parasites was determined by either slide counts or by incorporation of ³H-hypoxanthine. The parasite growth was monitored by microscopic slide counts. […]

[6] = rats
[7] = hypertransfused rats, 40 mg per animal, single subcutaneous injection
[8] = 40 mg i.p., hypertransfused rats, 4 days
[9] = hypertransfused rats, 40 mg per animal, after 4 days, Desferral i.p., route not printed for Ex. 4 and Ex. 5, mean ± SD
[10] = oral administration of 40 mg, hypertransfused rats

Molecule	Inhibition of Ribonucleoside Diphosphate Reductase (RdR) % ([1]; dose 1 x 10⁻⁵ M)	Inhibition of Ribonucleoside Diphosphate Reductase (RdR) % ([1]; dose 10 x 10⁻⁵ M)	Inhibition of Ribonucleoside Diphosphate Reductase (RdR) % ([1]; dose 100 x 10⁻⁵ M)	higher affinity for ferrous than for ferric ions [2]	Radioiron Distribution in % Feces [3]	Radioiron Distribution in % Total excretion [3]	Radioiron Distribution in % Urine [3]	Radioiron Distribution in % Blood [3]	Radioiron Distribution in % Liver [3]	Radioiron Distribution in % Spleen [3]	further results
NC(=O)NO [Hydroxyurea, reference compound]	15%	37%	73%								
Cc1ncc(CO)c(C=NNc2ncccn2)c1O [Ex. 4]	30%	40%	78%	~30 fold							
Cc1c(O)c(C=NNC(=O)c2cc[n+](C)cc2)c(CO)c[n+]1C.[I-].[I-] [Comparative Compound B, 1-[N-methylpyridoxylidenium]-2-[N′-isonicotinoylium] hydrazine dimethiodide, reference compound]					8.6±0.3%	39.2±1.6%	30.6±1.12%	25.1±2.2%	8.2±0.8%	0.36±0.03%	
bleomycin [reference compound]											Inhibition of Lewis Carcinoma Metastases % (Lewis lung carcinoma): 48%; Inhibition of Lewis Carcinoma Primary Tumor % (Lewis lung carcinoma): 24%
1-[N-methylpyridoxylidenium]-2-[methyl pyridiniumn] hydrazine hydroxido iodide [Ex. 2]					27.0±2.2%	66.0±5.3%	39.0±3.1%	13.3±2.3%	6.8±0.4%	0.51±0.02%	Ferritin-⁵⁹Fe distribution in % Blood [4, 7]: 3.0±0.1%; Ferritin-⁵⁹Fe distribution in % Feces [4, 7]: 58.9±3.0%; Ferritin-⁵⁹Fe distribution in % Liver [4, 7]: 35.5±1.7%; Ferritin-⁵⁹Fe distribution in % Residual [4, 7]: 0%; Ferritin-⁵⁹Fe distribution in % Spleen [4, 7]: 0.4±0.1%; Ferritin-⁵⁹Fe distribution in % Urine [4, 7]: 2.2±0.1%
CCOC(=O)[n+]1cc(CO)c(C=NNc2ncccn2)c(O)c1C [Ex. 5, 1-(N-ethoxycarbonylpyridoxylidenium]-2-[2′-pyrimidyl] hydrazine]				~30 fold	67.3±2.4%	96.2±3.4%	28.9±1.0%	4.2±0.2%	2.9±0.2%	0.06±0.03%	TOTAL EXCRETION OF RADIO-IRON IN RATS % ([3]; as in Table 1): 96.2± 3.4%; excretion of the radioiron label in the stool [4, 8]: 72%; reduction in hepatocellular (hepatic) radioactivity [4, 8]: 69%; ORGAN DISTRIBUTION AND EXCRETION OF ⁵⁹Fe-FERRITIN (%) BLOOD [4, 9]: 3.1±0.6%; ORGAN DISTRIBUTION AND EXCRETION OF ⁵⁹Fe-FERRITIN (%) LIVER [4, 9]: 63.8± 8.7%; ORGAN DISTRIBUTION AND EXCRETION OF ⁵⁹Fe-FERRITIN (%) STOOL [4, 9]: 27.6±1.3%; ORGAN DISTRIBUTION AND EXCRETION OF ⁵⁹Fe-FERRITIN (%) TOTAL EXCRETION [4, 9]: 28.1±1.3%; ORGAN DISTRIBUTION AND EXCRETION OF ⁵⁹Fe-FERRITIN (%) URINE [4, 9]: 0.5±0%; greater oral chelating efficiency than an identical dose of parenteral DF ([4]; oral 40 mg versus parenteral DF 40 mg): roughly 20%; excretion of radioiron [4, 10]: 28%; reduction in hepatic ⁵⁹Fe [4, 10]: 27%; effectiveness in the chelation test relative to prior art PIH ([2]; compared with PIH): about sixty times more effective; INHIBITION OF GROWTH OF DRUG-RESISTANT STRAIN OF P. falciparum % INHIBITION [5]: 90.3%; tolerance ([6]; 100 mg/kg/d by oral or parenteral administration): well tolerated; biochemical tests of hepatic and renal function, complete blood counts, hepatic and renal histology ([6]; after 3 months of continuous treatment): no indications of toxicity
